One data set relates to IBD patients. Conditions: cited from earlier work.
For data set [1] the following is noted: statement, no test described; cited from earlier work.
The subject of data set [2] is mice with ulcerative colitis in TNBS modeling. Description: Prevention of TNBS-induced IBD in mice, Example 3. It is filed as in vivo, BALB/c mice. On the procedure: Experimental Animals: the same as in Example 2.
Reagents: the same as in Example 2.
Model preparation: the same as in Example 2.
Experimental animal groups: model group, prevention group and control group (n=8). The prevention group: BALB/c mice were treated therapeutically with CBLB502 (3.2 mg/kg) before TNBS administration, and then the mice were given TNBS and normal feeding two days. The model group was normal feeding two days after TNBS administration. The control mice received 38% ethanol alone by using the same method described above, and normal feeding.
Test contents and test methods: the same as in Example 2.

Data set [3] has the same test system. The data set is described as follows: Treatment of TNBS-induced ulcerative colitis (IBD) in mice, Example 2. The data set is classed as in vivo, BALB/c mice. Here is the method:
Experimental Animal: Male BALB/c mice (7-8 weeks old, 25±5 g) were obtained from Experimental Animal Center of Academy of Military Medical Sciences (Beijing, China). Mice were provided sterile food and water, and 12 h light/12 h dark cycle. All animal experiments were approved by the Institutional Animal Care and Use Committee at Academy of Military Medical Sciences.
Reagents: 2,4,6-trinitrobenzene sulfonic acid (TNBS, were purchased from Sigma Chemical Co.), CZLC331 (prepared in Example 1), RT PCR kit (ID isFSK100, purchased from Toyobo Biotechnology Co., Ltd.).
Model preparation: Mice (hunger for 36 h) were anesthetized with isoflurane using anesthesia machine. To induce IBD, 150 mg/kg of TNBS (Sigma-Aldrich) in 38% ethanol (to break the intestinal epithelial barrier) was administered by the mouse gavage needle equipped with a 1 ml syringe, what the diameter of silicone tube is 2. 0 mm and the length is about 10 cm, the gavage needle was advanced into the rectum until the tip was 4 cm proximal to the anal verge. The total injection volume was 100 μl.
Experimental animal groups: model group, treatment group and control group (n=8). The control mice received 38% ethanol alone by using the same method described above, and normal feeding two days. The treatment group: BALB/c mice were treated therapeutically with CBLB502 (3.2 mg/kg) at 0.5 h after TNBS administration. At the same time, BALB/c mice were treated therapeutically with CBLB502 (0.2-6.4 mg/kg) from 0.5 h to 8 h after TNBS administration, and normal feeding two days. The mice of model group were normal feeding two days after TNBS administration.
Mice were monitored for the appearance of diarrhea, changes of body weight, and overall mortality. At the end of the experiment after TNBS administration two days, surviving mice were killed, blood samples were collected by cardiac puncture, and a 7-cm segment of the colon was excised for macroscopic (FIG. 1, FIG. 4 left, and FIG. 5) and microscopic damage evaluation (FIG. 2, FIG. 4 right, and FIG. 6). And the end of the colon after washing using physiological saline was kept at −80° C. frozen for follow-up testing.
2. Histological examination: The colonic samples were fixed in 4% buffered formalin overnight and then transferred to 70% ethanol, embedded in paraffin for sectioning, and then stained with hematoxylin and eosin (H&E) to examine the histological differences.

Another data set deals with TLR family. The data set is described as follows: Expression of TLR family in colon by RT-PCR after treatment in TNBS modeling. It is filed as in vivo, BALB/c mice. As to conditions: 3.2 mg/kg 4 h after TNBS. The text has this: The colon samples were removed at the indicated times, washed with phosphate-buffered saline (pH 7.2), and cut in small pieces. Total RNA of colon samples what were control group, modeling group and treatment group were extracted by Total RNA kits II (Omega, Japan) according to the manufacturers' instructions, and then reverse-transcribed by the Reverse Transcription System (Sigma, USA). Subsequently, the TLRs and β-actin were amplified by PCR using the following primers (Table 1). The reaction system of PCR was 500, Ex Taq 0.250, 10× buffer 5 μl, dNTP 5 μl, template 2 μl, the upstream and downstream primers 1 μl, ddH2O 35.75 μl. The reaction condition of PCR is 95° C. 5 min, 95° C. 45 sec, 62° C. 45 sec, 72° C. 1 min, total 25 cycles, and then 72° C. 5 min. PCR products were identified on 2% agarose-gel electrophoresis followed by image analysis software.

[4] abbreviates: given 0.5 h before TNBS modeling, two days, versus model group.

“Also recorded” adds a separate entry of the source.

Turning to `O=C(O)c1cc(/N=N/c2ccc(S(=O)(=O)Nc3ccccn3)cc2)ccc1O` [sulfasalazine], in the data set with IBD patients (after taking the drug), the side effects entry is “nausea, rash, neutropenia”. In the data set on IBD patients (clinical drug), the effective rate result is “about 90%” and the markedly effective rate is 50%. Also, the “onset (time until symptoms improved)” value in the data set on IBD patients (clinical) is reported as “about two”.
As for “CZLC331: Salmonella flagellin derivative, SEQ ID NO: 3: Tat protein transduction peptide plus flagellin residues 1-176 and 402-505 joined by flexible linker; 331 amino acids”, in data set [1], the side effects result was “no significant side effects” and the toxicity entry is “non-toxic”. Moreover, in data set [2] (setting [4]), the “clinical signs: blood in the stool, eat less, move less” value is recorded as “reduced” and the “colon: congestion, edema, hemorrhage” value was “began reduce”. For the same compound, the “prevention of IBD (overall)” value in data set [2] (given before TNBS modeling) was “protective effects”. Besides, the “clinical signs: blood in the stool, feeding/water intake, activity” value in data set [3] (0.2-6.4 mg/kg intraperitoneal, 0.5 h to 8 h after TNBS, two days, versus model group) was “feeding/water intake of mice return to normal, the activities increased significantly and reduce blood in the stool; also recorded: reduced”. Also, the “colon appearance: congestion, edema, hemorrhage, ulcers” value in data set [3] (0.2-6.4 mg/kg, 0.5 h to 8 h after TNBS, two days, versus model group) was “significantly reduced; also recorded: began reduce”. Also, the “colonic mucosa HE staining: cell structure, goblet cells, lymphocyte and neutrophil infiltration” value in data set [3] (0.2-6.4 mg/kg, 0.5 h to 8 h after TNBS, versus model group) is “significantly reduced; also recorded: structures of cells were arranged in neat, a small number of goblet cells and lymphocyte and neutrophil infiltration were disappeared; also recorded: well results for treating”. Further, the cure rate in data set [3] (TNBS mice, intraperitoneal CZLC331) is 70%. Further, the “onset (time after administration to effect)” value in data set [3] (examples 2 and 3, all animals) worked out at 24 h. The effective rate in data set [3] (improvement of feeding, activity and blood in stool, all animals of treatment group and prevention group (examples 2 and 3)) is given as 100%. In data set [3] (treatment group), the “effective rate of recovered colon mucosa” value is 75%. Also, in the data set with TLR family (raised in model group), the “expression of TLR6” value is given as “no significant differences”, the “expression of TLR7” value is “no significant differences” and the “expression of TLR8” value is recorded as “would change”. Also, the “expression of TLR family” value in the data set with TLR family (versus model group) was “significant differences with the model group”.

These data come from patent US9259453B2, “Use of salmonella flagellin derivative in preparation of drug for preventing and treating inflammatory bowel diseases” (priority 2011, dated 2016).
